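Growth conditions: 96-well plates. Treatment: test compound, 48 hours, 5 concentrations. Analysis: linear interpolation between bracketing concentrations; unreached endpoints set to highest concentration. TGI: total growth inhibition.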
Columns and labels:
Test in all cases: NCI tumour cell line growth inhibition, 48 h
786-0 renal = system: 786-0 renal
A498 renal = system: A498 renal
A549 NSCLC = system: A549 NSCLC
ACHN renal = system: ACHN renal
BT-549 breast = system: BT-549 breast
CAKI-1 renal = system: CAKI-1 renal
CCRF-CEM leukemia = system: CCRF-CEM leukemia
COLO 205 colon = system: COLO 205 colon
DU-145 prostate = system: DU-145 prostate
EKVX NSCLC = system: EKVX NSCLC
HCC-2998 colon = system: HCC-2998 colon
HCT-116 colon = system: HCT-116 colon
HCT-15 colon = system: HCT-15 colon
HL-60(TB) leukemia = system: HL-60(TB) leukemia
HOP-62 NSCLC = system: HOP-62 NSCLC
HOP-92 NSCLC = system: HOP-92 NSCLC
HT29 colon = system: HT29 colon
IGROV1 ovarian = system: IGROV1 ovarian
K-562 leukemia = system: K-562 leukemia
KM12 colon = system: KM12 colon
LOX IMVI melanoma = system: LOX IMVI melanoma
M14 melanoma = system: M14 melanoma
MCF7 breast = system: MCF7 breast
MDA-MB-231 breast = system: MDA-MB-231 breast
MDA-MB-435 = system: MDA-MB-435
MDA-N = system: MDA-N
MOLT-4 leukemia = system: MOLT-4 leukemia
NCI-H226 lung = system: NCI-H226 lung
NCI-H23 lung = system: NCI-H23 lung
NCI-H460 lung = system: NCI-H460 lung
NCI-H522 lung = system: NCI-H522 lung
NCI/ADR-RES ovarian = system: NCI/ADR-RES ovarian
OVCAR-3 ovarian = system: OVCAR-3 ovarian
OVCAR-4 ovarian = system: OVCAR-4 ovarian
OVCAR-5 ovarian = system: OVCAR-5 ovarian
OVCAR-8 ovarian = system: OVCAR-8 ovarian
PC-3 prostate = system: PC-3 prostate
RPMI-8226 leukemia = system: RPMI-8226 leukemia
RXF 393 renal = system: RXF 393 renal
SF-268 CNS = system: SF-268 CNS
SF-295 CNS = system: SF-295 CNS
SK-MEL-2 melanoma = system: SK-MEL-2 melanoma
SK-MEL-28 melanoma = system: SK-MEL-28 melanoma
SK-MEL-5 melanoma = system: SK-MEL-5 melanoma
SK-OV-3 ovarian = system: SK-OV-3 ovarian
SN12C renal = system: SN12C renal
SNB-19 CNS = system: SNB-19 CNS
SNB-75 CNS = system: SNB-75 CNS
SR leukemia = system: SR leukemia
SW-620 colon = system: SW-620 colon
T-47D breast = system: T-47D breast
TK-10 renal = system: TK-10 renal
U251 CNS = system: U251 CNS
UACC-257 melanoma = system: UACC-257 melanoma
UACC-62 melanoma = system: UACC-62 melanoma
UO-31 renal = system: UO-31 renal
HS 578T breast = system: HS 578T breast
MALME-3M melanoma = system: MALME-3M melanoma
SF-539 CNS = system: SF-539 CNS

CN1C(=O)[C@@]2(C=CC3(CC2)OCCO3)c2ccccc21
TGI (786-0 renal): > 50 µM
TGI (A498 renal): > 50 µM
TGI (A549 NSCLC): > 50 µM
TGI (ACHN renal): > 50 µM
TGI (BT-549 breast): > 50 µM
TGI (CAKI-1 renal): > 50 µM
TGI (CCRF-CEM leukemia): > 50 µM
TGI (COLO 205 colon): > 50 µM
TGI (DU-145 prostate): > 50 µM
TGI (EKVX NSCLC): > 50 µM
TGI (HCC-2998 colon): > 50 µM
TGI (HCT-116 colon): > 50 µM
TGI (HCT-15 colon): > 50 µM
TGI (HL-60(TB) leukemia): > 50 µM
TGI (HOP-62 NSCLC): > 50 µM
TGI (HOP-92 NSCLC): > 50 µM
TGI (HT29 colon): > 50 µM
TGI (IGROV1 ovarian): > 50 µM
TGI (K-562 leukemia): > 50 µM
TGI (KM12 colon): > 50 µM
TGI (LOX IMVI melanoma): > 50 µM
TGI (M14 melanoma): > 50 µM
TGI (MCF7 breast): > 50 µM
TGI (MDA-MB-231 breast): > 50 µM
TGI (MDA-MB-435): > 50 µM
TGI (MDA-N): > 50 µM
TGI (MOLT-4 leukemia): > 50 µM
TGI (NCI-H226 lung): > 50 µM
TGI (NCI-H23 lung): > 50 µM
TGI (NCI-H460 lung): > 50 µM
TGI (NCI-H522 lung): > 32.4 µM
TGI (NCI/ADR-RES ovarian): > 50 µM
TGI (OVCAR-3 ovarian): > 50 µM
TGI (OVCAR-4 ovarian): > 50 µM
TGI (OVCAR-5 ovarian): > 50 µM
TGI (OVCAR-8 ovarian): > 50 µM
TGI (PC-3 prostate): > 50 µM
TGI (RPMI-8226 leukemia): > 50 µM
TGI (RXF 393 renal): > 50 µM
TGI (SF-268 CNS): 32.2 µM
TGI (SF-295 CNS): > 50 µM
TGI (SK-MEL-2 melanoma): > 50 µM
TGI (SK-MEL-28 melanoma): > 50 µM
TGI (SK-MEL-5 melanoma): > 50 µM
TGI (SK-OV-3 ovarian): > 50 µM
TGI (SN12C renal): > 50 µM
TGI (SNB-19 CNS): > 50 µM
TGI (SNB-75 CNS): 49.5 µM
TGI (SR leukemia): > 50 µM
TGI (SW-620 colon): > 50 µM
TGI (T-47D breast): > 50 µM
TGI (TK-10 renal): > 50 µM
TGI (U251 CNS): > 50 µM
TGI (UACC-257 melanoma): > 50 µM
TGI (UACC-62 melanoma): > 50 µM
TGI (UO-31 renal): > 50 µM

O=C(Nc1ccccc1)N1N=C(c2ccccc2)C1c1ccccc1 (stereo not drawn)
TGI (786-0 renal): 36.6 µM
TGI (A498 renal): 42.7 µM
TGI (A549 NSCLC): > 100 µM
TGI (ACHN renal): 65.8 µM
TGI (BT-549 breast): 64.4 µM
TGI (CAKI-1 renal): 95.3 µM
TGI (COLO 205 colon): > 100 µM
TGI (DU-145 prostate): > 100 µM
TGI (EKVX NSCLC): > 100 µM
TGI (HCC-2998 colon): > 100 µM
TGI (HCT-116 colon): 44.8 µM
TGI (HCT-15 colon): > 100 µM
TGI (HL-60(TB) leukemia): > 100 µM
TGI (HOP-92 NSCLC): 91.9 µM
TGI (HS 578T breast): 60.7 µM
TGI (HT29 colon): 39.8 µM
TGI (IGROV1 ovarian): > 100 µM
TGI (KM12 colon): > 100 µM
TGI (LOX IMVI melanoma): 89.6 µM
TGI (M14 melanoma): 60.4 µM
TGI (MALME-3M melanoma): 64.2 µM
TGI (MCF7 breast): 51.8 µM
TGI (MDA-MB-231 breast): > 100 µM
TGI (MDA-N): 70.7 µM
TGI (NCI-H226 lung): 37.3 µM
TGI (NCI-H23 lung): 72.1 µM
TGI (NCI-H460 lung): > 100 µM
TGI (NCI-H522 lung): 37 µM
TGI (NCI/ADR-RES ovarian): 82.2 µM
TGI (OVCAR-3 ovarian): 42.1 µM
TGI (OVCAR-4 ovarian): > 100 µM
TGI (OVCAR-5 ovarian): > 100 µM
TGI (OVCAR-8 ovarian): > 100 µM
TGI (PC-3 prostate): 35.3 µM
TGI (RPMI-8226 leukemia): 30.6 µM
TGI (RXF 393 renal): 44.5 µM
TGI (SF-268 CNS): 50.8 µM
TGI (SF-295 CNS): 73.8 µM
TGI (SF-539 CNS): 34.5 µM
TGI (SK-MEL-28 melanoma): > 100 µM
TGI (SK-MEL-5 melanoma): 54.7 µM
TGI (SK-OV-3 ovarian): > 100 µM
TGI (SN12C renal): > 100 µM
TGI (SNB-19 CNS): > 100 µM
TGI (SNB-75 CNS): 32 µM
TGI (SW-620 colon): > 100 µM
TGI (T-47D breast): > 100 µM
TGI (TK-10 renal): > 100 µM
TGI (U251 CNS): > 100 µM
TGI (UACC-257 melanoma): > 100 µM
TGI (UACC-62 melanoma): 45.7 µM
TGI (UO-31 renal): 69.6 µM

Reference: PubChem BioAssay (NCI)
